Patent US7232837B2, “Stereoisomers with high affinity for adrenergic receptors” (McNeil-PPC, Inc., priority 1999, dated 2007)
Where a name gives a salt, the structure may show the parent alone.

Tests used:
[1] = system: New Zealand white rabbits; assay: Pupil diameter / mydriasis after topical application to the rabbit eye; type: in vivo; design: key to Mydriatic Responses, UNTREATED EYE: 0 = No change; + = 0–2 mm change; ++ = 2–4 mm change; conditions: for Pupil Diameter: mean ± S.E.
Experimental: (§1) These diastereomers were administered topically as either 1% or 2% solutions in buffered saline. Pupillary diameter and IOP were measured in all animals over a six hour time period during the day to minimize diurnal variations in IOP and pupil diameter.
(§2) The experiments were performed on adult male New Zealand white rabbits weighing 3.0–6.0 kg. All rabbits were caged individually and maintained on a 12 hr/12 hr light/dark schedule with free access to food and water. All animal procedures were in conformity with the ARVO Resolution on the Use and Care of Animals in Research. All treated rabbits had served as controls by having received a saline treatment on a different day.
(§3) Only one eye received drug treatment. The contralateral eye served as a control. Saline (or PBS) and drug treated rabbits were treated and observed simultaneously. A single dose was given at time zero and IOP and pupil diameter measured at −1.0, −0.5, 0.5, 1, 3 and 5 hrs post-treatment.
Pupil diameter was measured visually at the point of the greatest horizontal diameter with a transparent millimeter ruler. All measurements were made under the identical ambient lighting conditions.
(§4) Mean and Standard Error values were used to construct time-response and dose-response curves for the treated and contralateral eye of research rabbits. The data were analyzed statistically by an analysis of variance and a Bonferoni's test for significance. P<0.05 was the accepted level of significance.

[2] = system: New Zealand white rabbits; assay: Intraocular pressure (IOP) after topical application to the rabbit eye; type: in vivo; conditions: for IOP: mean ± S.E.
Experimental: as §1, §2, §3
IOP measurements were recorded with an Alcon Applanation Pneumotonograph (Surgical Products Division, Alcon Laboratories, Inc., Ft. Worth, Tex.) in rabbits placed in Lucite restraining cages. Initial topical application of a two drop 0.5% proparacaine HCl (Ophthetic®, Allergan Pharmaceuticals, Inc.) was performed on each rabbit.
as §4

[3] = 1% topical, drug treated eye (T), 0.5 hr
[4] = 1% topical, drug treated eye (T), 1 hr
[5] = 1% topical, drug treated eye (T), 3 hr
[6] = 1% topical, drug treated eye (T), 5 hr
[7] = 1% topical, drug treated eye (T), −0.5 hr (pre-treatment)
[8] = 1% topical, drug treated eye (T), −1 hr (pre-treatment)
[9] = 1% topical, untreated contralateral eye (U), 0.5 hr
[10] = 1% topical, untreated contralateral eye (U), 1 hr
[11] = 1% topical, untreated contralateral eye (U), 3 hr
[12] = 1% topical, untreated contralateral eye (U), 5 hr
[13] = 1% topical, untreated contralateral eye (U), −0.5 hr (pre-treatment)
[14] = 1% topical, untreated contralateral eye (U), −1 hr (pre-treatment)
[15] = 2% topical, drug treated eye (T), 0.5 hr
[16] = 2% topical, drug treated eye (T), 1 hr
[17] = 2% topical, drug treated eye (T), 3 hr
[18] = 2% topical, drug treated eye (T), 5 hr
[19] = 2% topical, drug treated eye (T), −0.5 hr (pre-treatment)
[20] = 2% topical, drug treated eye (T), −1 hr (pre-treatment)
[21] = 2% topical, untreated contralateral eye (U), 0.5 hr
[22] = 2% topical, untreated contralateral eye (U), 1 hr
[23] = 2% topical, untreated contralateral eye (U), 3 hr
[24] = 2% topical, untreated contralateral eye (U), 5 hr
[25] = 2% topical, untreated contralateral eye (U), −0.5 hr (pre-treatment)
[26] = 2% topical, untreated contralateral eye (U), −1 hr (pre-treatment)

## C[C@H](N)[C@H](O)c1cccc(O)c1 [Metaraminol Bitartrate Salt, USP, metaraminol bitartrate salt, reference compound]
[1]; 1% or 2% topical, rabbit
  mydriasis / pupil diameter (result in words): produced mydriasis
[1]; 1% topical
  Mydriatic Responses, TREATED EYE: ++ (++ = 2–4 mm change)
  Mydriatic Responses, UNTREATED EYE: 0
[1]; [3]
  Pupil Diameter: 9 ± 0.5 mm
[1]; [4]
  Pupil Diameter: 9 ± 0.5 mm
[1]; [5]
  Pupil Diameter: 9 ± 0.2 mm
[1]; [6]
  Pupil Diameter: 9 ± 0.5 mm
[1]; [7]
  Pupil Diameter: 7 ± 0.5 mm
[1]; [8]
  Pupil Diameter: 7 ± 0.5 mm
[1]; [9]
  Pupil Diameter: 7 ± 0.5 mm
[1]; [10]
  Pupil Diameter: 7 ± 0.5 mm
[1]; [11]
  Pupil Diameter: 7 ± 0.5 mm
[1]; [12]
  Pupil Diameter: 7 ± 0.5 mm
[1]; [13]
  Pupil Diameter: 7 ± 0.5 mm
[1]; [14]
  Pupil Diameter: 7 ± 0.5 mm
[1]; [15]
  Pupil Diameter: 10 ± 0.2 mm
[1]; [16]
  Pupil Diameter: 10 ± 0.2 mm
[1]; [17]
  Pupil Diameter: 10 ± 0.2 mm
[1]; [18]
  Pupil Diameter: 10 ± 0.2 mm
[1]; [19]
  Pupil Diameter: 5 ± 0.2 mm
[1]; [20]
  Pupil Diameter: 5 ± 0.2 mm
[1]; [21]
  Pupil Diameter: 10 ± 0.2 mm
[1]; [22]
  Pupil Diameter: 10 ± 0.2 mm
[1]; [23]
  Pupil Diameter: 10 ± 0.2 mm
[1]; [24]
  Pupil Diameter: 10 ± 0.2 mm
[1]; [25]
  Pupil Diameter: 5 ± 0.2 mm
[1]; [26]
  Pupil Diameter: 5 ± 0.2 mm
[2]; 1% or 2% topical, rabbit
  effect on IOP (result in words): accompanying increase in IOP
[2]; [3]
  IOP: 25 ± 1.2 mmHg
[2]; [4]
  IOP: 24 ± 1.3 mmHg
[2]; [5]
  IOP: 21 ± 2.8 mmHg
[2]; [6]
  IOP: 21 ± 2.7 mmHg
[2]; [7]
  IOP: 19 ± 1.3 mmHg
[2]; [8]
  IOP: 21 ± 2.3 mmHg
[2]; [9]
  IOP: 18 ± 1.7 mmHg
[2]; [10]
  IOP: 18 ± 1.0 mmHg
[2]; [11]
  IOP: 19 ± 1.4 mmHg
[2]; [12]
  IOP: 17 ± 0.8 mmHg
[2]; [13]
  IOP: 16 ± 1.1 mmHg
[2]; [14]
  IOP: 18 ± 1.4 mmHg
[2]; [15]
  IOP: 15 ± 1.1 mmHg
[2]; [16]
  IOP: 16 ± 3.6 mmHg
[2]; [17]
  IOP: 14 ± 2.0 mmHg
[2]; [18]
  IOP: 13 ± 0.8 mmHg
[2]; [19]
  IOP: 14 ± 0.9 mmHg
[2]; [20]
  IOP: 15 ± 0.7 mmHg
[2]; [21]
  IOP: 19 ± 1.1 mmHg
[2]; [22]
  IOP: 18 ± 0.8 mmHg
[2]; [23]
  IOP: 19 ± 1.1 mmHg
[2]; [24]
  IOP: 21 ± 1.6 mmHg
[2]; [25]
  IOP: 15 ± 0.7 mmHg
[2]; [26]
  IOP: 17 ± 1.2 mmHg

## Mephentermine Hemisulfate Salt [reference compound]
[1]; 1% topical
  Mydriatic Responses, TREATED EYE: ++ (++ = 2–4 mm change)
  Mydriatic Responses, UNTREATED EYE: 0
[1]; [3]
  Pupil Diameter: 10 ± 0.2 mm
[1]; [4]
  Pupil Diameter: 10 ± 0.2 mm
[1]; [5]
  Pupil Diameter: 10 ± 0.2 mm
[1]; [6]
  Pupil Diameter: 10 ± 0.2 mm
[1]; [7]
  Pupil Diameter: 7 ± 0.2 mm
[1]; [8]
  Pupil Diameter: 7 ± 0.2 mm
[1]; [9]
  Pupil Diameter: 7 ± 0.2 mm
[1]; [10]
  Pupil Diameter: 7 ± 0.2 mm
[1]; [11]
  Pupil Diameter: 7 ± 0.2 mm
[1]; [12]
  Pupil Diameter: 7 ± 0.2 mm
[1]; [13]
  Pupil Diameter: 7 ± 0.2 mm
[1]; [14]
  Pupil Diameter: 7 ± 0.2 mm
[1]; 2% topical
  Mydriatic Responses, TREATED EYE: + (+ = 0–2 mm change)
  Mydriatic Responses, UNTREATED EYE: 0
[1]; [15]
  Pupil Diameter: 7 ± 0.7 mm
[1]; [16]
  Pupil Diameter: 8 ± 0.7 mm
[1]; [17]
  Pupil Diameter: 6 ± 0.4 mm
[1]; [18]
  Pupil Diameter: 6 ± 0.4 mm
[1]; [19]
  Pupil Diameter: 6 ± 0.3 mm
[1]; [20]
  Pupil Diameter: 6 ± 0.3 mm
[1]; [21]
  Pupil Diameter: 6 ± 0.3 mm
[1]; [22]
  Pupil Diameter: 6 ± 0.3 mm
[1]; [23]
  Pupil Diameter: 6 ± 0.3 mm
[1]; [24]
  Pupil Diameter: 6 ± 0.3 mm
[1]; [25]
  Pupil Diameter: 6 ± 0.4 mm
[1]; [26]
  Pupil Diameter: 6 ± 0.4 mm
[2]; [3]
  IOP: 24 ± 1.0 mmHg
[2]; [4]
  IOP: 24 ± 0.7 mmHg
[2]; [5]
  IOP: 22 ± 0.9 mmHg
[2]; [6]
  IOP: 18 ± 1.6 mmHg
[2]; [7]
  IOP: 18 ± 1.8 mmHg
[2]; [8]
  IOP: 19 ± 1.7 mmHg
[2]; [9]
  IOP: 20 ± 2.1 mmHg
[2]; [10]
  IOP: 17 ± 1.6 mmHg
[2]; [11]
  IOP: 20 ± 1.4 mmHg
[2]; [12]
  IOP: 17 ± 1.5 mmHg
[2]; [13]
  IOP: 17 ± 1.0 mmHg
[2]; [14]
  IOP: 17 ± 1.1 mmHg
[2]; [15]
  IOP: 23 ± 2.2 mmHg
[2]; [16]
  IOP: 23 ± 2.2 mmHg
[2]; [17]
  IOP: 21 ± 2.3 mmHg
[2]; [18]
  IOP: 23 ± 1.5 mmHg
[2]; [19]
  IOP: 19 ± 2.0 mmHg
[2]; [20]
  IOP: 21 ± 2.3 mmHg
[2]; [21]
  IOP: 18 ± 1.6 mmHg
[2]; [22]
  IOP: 16 ± 1.0 mmHg
[2]; [23]
  IOP: 18 ± 0.8 mmHg
[2]; [24]
  IOP: 20 ± 1.7 mmHg
[2]; [25]
  IOP: 17 ± 2.1 mmHg
[2]; [26]
  IOP: 18 ± 2.2 mmHg
